Results reported in the Deep4Chem optical property database.

Test: photoluminescence quantum yield (fraction); solvent given as SMILES

CCCCCCCCc1ccc(-c2c3cc(-c4cc(CCCCCCCC)c(-c5ccc(-c6sc(/C=C7\SC(SCC)=NC7=O)cc6CCCCCCCC)s5)s4)sc3c(-c3ccc(CCCCCCCC)s3)c3cc(-c4cc(CCCCCCCC)c(-c5ccc(-c6sc(/C=C7\SC(SCC)=NC7=O)cc6CCCCCCCC)s5)s4)sc23)s1
photoluminescence quantum yield (in C1CCOC1): 0.078
photoluminescence quantum yield (in ClC(Cl)Cl): 0.037

CN(C)c1ccc(C#Cc2ccccc2)cc1
photoluminescence quantum yield (in C1CCCCC1): 0.35
photoluminescence quantum yield (in C1CCOC1): 0.244
photoluminescence quantum yield (in C1COCCO1): 0.32
photoluminescence quantum yield (in CC1CCCO1): 0.314
photoluminescence quantum yield (in CC#N): 0.102
photoluminescence quantum yield (in CC(C)=O): 0.103
photoluminescence quantum yield (in CC(C)CC(C)(C)C): 0.28
photoluminescence quantum yield (in CC(C)O): 0.011
photoluminescence quantum yield (in CCCCCCCCCCCCCCCC): 0.372
photoluminescence quantum yield (in CCCCCCCCCCCCCCCCCl): 0.409
photoluminescence quantum yield (in CCOC(C)=O): 0.25
photoluminescence quantum yield (in CCOCC): 0.11
photoluminescence quantum yield (in CN(C)C=O): 0.3
photoluminescence quantum yield (in CO): 0.01
photoluminescence quantum yield (in CS(C)=O): 0.29
photoluminescence quantum yield (in Cc1ccccc1): 0.39

CC(=O)c1ccn2c3c(c(-c4cc[n+](C)cc4)c2c1)CN(C)C3=O
photoluminescence quantum yield (in O): 0.093

CCCCCCN1C(=O)c2cccc3c(-c4ccc(-c5cc(-c6ccc(C)cc6)nn5-c5ccccc5)s4)ccc(c23)C1=O
photoluminescence quantum yield (in ClCCl): 0.18

CCCSc1ccc2n1[B-](F)(F)[N+]1=C(SC#N)C=CC1=C2c1ccccc1
photoluminescence quantum yield (in CC#N): 0.16
photoluminescence quantum yield (in CCCCCC): 0.18
photoluminescence quantum yield (in CCOC(C)=O): 0.2
photoluminescence quantum yield (in CO): 0.16
photoluminescence quantum yield (in ClCCl): 0.27

CCOC(=O)CSc1nc2c(c(C#N)c1C#N)CCCC2
photoluminescence quantum yield (in c1ccccc1): 0.04

CC[N+]1(CC)CN2C(=N1)C(C(=O)O)=Cc1cc(Oc3ccccc3)ccc12
photoluminescence quantum yield (in O): 0.592

c1cc(-c2c3ccccc3c(-c3ccc4ccccc4c3)c3ccccc23)cc(-n2c3ccccc3c3ccccc32)c1
photoluminescence quantum yield (in ClCCl): 0.73

CCCCC#Cc1cccc2cc(CCCC)c3cc(-c4cc[b-]5c(c4)c(CCCC)cc4cccc(C#CCCCC)[n+]54)cc[b-]3[n+]12
photoluminescence quantum yield (in C1CCCCC1): 0.12

CCCCCCOc1cc(C=O)c(OCCCCCC)cc1C=O
photoluminescence quantum yield (in ClCCl): 0.208

COC(=O)C(NC(=O)OC(C)(C)C)c1ccc2oc(-c3cc(C(F)(F)F)cc(C(F)(F)F)c3)nc2c1 (stereo not given)
photoluminescence quantum yield (in CC1CCCCC1): 0.54
photoluminescence quantum yield (in CC#N): 0.46
photoluminescence quantum yield (in CO): 0.44

CC1=[N+]2C(=C(c3ccc(C(=C(c4ccccc4)c4ccccc4)c4ccccc4)cc3)c3ccc(/C=C/c4ccc(C(=C(c5ccccc5)c5ccccc5)c5ccccc5)cc4)n3[B-]2(F)F)C=C1
photoluminescence quantum yield (in C1CCOC1): 0.619

CCCCCCCCCCOc1cc2cc(C#Cc3ccc(/C=C(\C#N)C(=O)O)cc3)c(=O)oc2cc1OCCCCCCCCCC
photoluminescence quantum yield (in CC#N): 0.05

COc1ccc2cc(C#Cc3ccc([N+](=O)[O-])cc3)ccc2c1
photoluminescence quantum yield (in C1CCOC1): 0.025
photoluminescence quantum yield (in ClC(Cl)Cl): 0.03
photoluminescence quantum yield (in ClCCl): 0.015

c1ccc2c(-n3c(-c4ccc(-c5ccc(-c6nc7c8ccccc8c8ccccc8c7n6-c6cccc7ccccc67)c6ccccc56)c5ccccc45)nc4c5ccccc5c5ccccc5c43)cccc2c1
photoluminescence quantum yield (in ClCCl): 0.75

c1ccc(N2c3ccc4ccccc4c3-c3c4ccccc4cc[n+]3[B-]2(c2ccccc2)c2ccccc2)cc1
photoluminescence quantum yield (in Cc1ccccc1): 0.17

Cc1ccc(C#Cc2c3cc4ccccc4cc3c(C#C[Si](C(C)C)(C(C)C)C(C)C)c3cc4ccccc4cc23)cc1
photoluminescence quantum yield (in ClCCl): 0.1

CC(C)(C)NC(=O)c1ccc(-c2ccc(N3c4ccccc4Oc4ccccc43)cc2)c2ccc3c4ccc(F)cc4c4cc(F)ccc4c3c12
photoluminescence quantum yield (in ClCCl): 0.03

N#Cc1ccc(C#Cc2ncc(-c3ccccc3)o2)cc1
photoluminescence quantum yield (in ClCCl): 0.28

COc1ccccc1C1=[N+]2C(=Nc3c(-c4ccccc4)cc(-c4ccccc4OC)n3[B-]2(F)F)C(c2ccccc2)=C1
photoluminescence quantum yield (in Cc1ccccc1): 0.07

c1ccc2c(c1)c1ccccc1n2-c1ccc(-c2ccc(-n3c4ccccc4c4ccccc43)nc2-n2c3ccccc3c3ccccc32)nn1
photoluminescence quantum yield (in Cc1ccccc1): 0.35

CC1(C)CC(/C=C/c2ccc(N3CCOCCOCCOCCOCC3)cc2)=CC(=C(C#N)C#N)C1
photoluminescence quantum yield (in CCO): 0.111

N#Cc1ccc(N/N=C/c2ccc3ccccc3c2O)cc1
photoluminescence quantum yield (in CO): 0.13

CN(C)c1ccc(/C=C/c2cc(/C=C/c3ccc(N(C)C)cc3)nc(/C=C/c3ccccc3)n2)cc1
photoluminescence quantum yield (in ClCCl): 0.72

C1=C2C3=C(C4=[N+]2[B-]2(Oc5ccccc54)Oc4ccccc4-c4c5c(c1n42)C1CCC5CC1)C1CCC3CC1 (stereo not given)
photoluminescence quantum yield (in ClCCl): 0.99

CCCCOC(=O)c1ccccc1-c1c2ccc(=[N+](CC)CC)cc-2oc2cc(N(CC)CC)ccc12
photoluminescence quantum yield (in CC#N): 0.36
photoluminescence quantum yield (in CCO): 0.71
photoluminescence quantum yield (in CN(C)C=O): 0.35
photoluminescence quantum yield (in O): 0.3

CCCCCCCCn1c2ccc(/C=C/c3ccc(N(c4ccccc4)c4ccccc4)cc3)cc2c2cc3c(cc21)c1cc(/C=C/c2ccc(N(c4ccccc4)c4ccccc4)cc2)ccc1n3CCCCCCCC
photoluminescence quantum yield (in Cc1ccccc1): 0.6

CC(C)(C)c1ccc(C2=C(c3ccc(C(C)(C)C)cc3)C(c3ccc(C(C)(C)C)cc3)=[N+]3C2=C(c2ccccc2)c2c(-c4ccc(C(C)(C)C)cc4)c(-c4ccc(C(C)(C)C)cc4)c(-c4ccc(C(C)(C)C)cc4)n2[B-]3(F)F)cc1
photoluminescence quantum yield (in C1CCCCC1): 0.32
photoluminescence quantum yield (in C1CCOC1): 0.3
photoluminescence quantum yield (in CC#N): 0.25
photoluminescence quantum yield (in Cc1ccccc1): 0.57
photoluminescence quantum yield (in ClCCl): 0.45

C#Cc1ccc2ccc3oc(=O)cc(C)c3c2c1
photoluminescence quantum yield (in CCO): 0.23

CCOc1ccc2c(-c3nc(-c4ccccc4Cl)no3)cc(=O)oc2c1
photoluminescence quantum yield (in CCO): 0.52
photoluminescence quantum yield (in ClC(Cl)Cl): 0.26

CN(C)c1ccc2nc(/C=C/c3cc4c5c(c3)CCCN5CCC4)c(=O)oc2c1
photoluminescence quantum yield (in C1CCCCC1): 0.37
photoluminescence quantum yield (in C1COCCO1): 0.56
photoluminescence quantum yield (in CC#N): 0.023
photoluminescence quantum yield (in CC(C)=O): 0.08
photoluminescence quantum yield (in CCCCCCC): 0.32
photoluminescence quantum yield (in CCO): 0.008
photoluminescence quantum yield (in CCOC(C)=O): 0.39
photoluminescence quantum yield (in CN(C)C=O): 0.036
photoluminescence quantum yield (in CS(C)=O): 0.03
photoluminescence quantum yield (in Cc1ccccc1): 0.55
photoluminescence quantum yield (in ClC(Cl)Cl): 0.2
photoluminescence quantum yield (in ClCCl): 0.19

CCCCn1c(-c2ccc(-c3nnc(-c4cccs4)o3)cc2)nc2c3ccccc3c3ccccc3c21
photoluminescence quantum yield (in ClCCl): 0.62

CCCCCCOc1ccc(-c2cnc(-c3nnc(-c4ccc(OCCCCCC)cc4)o3)o2)cc1
photoluminescence quantum yield (in C1CCCCC1): 0.82
photoluminescence quantum yield (in C1CCOC1): 0.57
photoluminescence quantum yield (in CC#N): 0.75
photoluminescence quantum yield (in CCO): 0.8
photoluminescence quantum yield (in CO): 0.65
photoluminescence quantum yield (in ClC(Cl)Cl): 0.49

CN(C)c1ccc(-c2ccc(-c3cc(N4CCCCC4)c(C#N)c4c3-c3ccccc3CC4)s2)cc1
photoluminescence quantum yield (in C1CCOC1): 0.85

CN(C)c1ccc(-c2cc[n+](C)cc2)s1
photoluminescence quantum yield (in CCO): 0.003

COc1ccc(-c2c3ccc([nH]3)c3nc(c(-c4ccc(C#N)cc4)c4ccc([nH]4)c4ccc([nH]4)c(-c4ccc(OC)cc4)c4ccc2o4)C=C3)cc1
photoluminescence quantum yield (in C1CCOC1): 0.072
photoluminescence quantum yield (in Cc1ccccc1): 0.141
photoluminescence quantum yield (in c1ccccc1): 0.147

O=C1c2ccc(N(c3ccccc3)c3ccccc3)cc2C(=O)c2ccc(N(c3ccccc3)c3ccccc3)cc21
photoluminescence quantum yield (in Cc1ccccc1): 0.2
photoluminescence quantum yield (in c1ccc2c(c1)c1ccccc1n2-c1ccc(-c2ccc(-n3c4ccccc4c4ccccc43)cc2)cc1): 0.5

CCOC(=O)c1ccc2c(c1)[nH]c1c3ccc(C(=O)OCC)cc3[se]c21
photoluminescence quantum yield (in CCCO): 0.017

O=S1c2ccc(-c3c4ccccc4cc4ccccc34)cc2-c2cc(-c3c4ccccc4cc4ccccc34)ccc21
photoluminescence quantum yield (in C1CCCCC1): 0.31
photoluminescence quantum yield (in CC#N): 0.14
photoluminescence quantum yield (in ClCCl): 0.27

F[Si-](F)(c1ccccc1)(c1ccccc1)c1cccc2ccccc12
photoluminescence quantum yield (in C1CCOC1): 0.061

c1ccc(-c2ccc(-c3ccccc3)cc2)cc1
photoluminescence quantum yield (in C1COCCO1): 0.55

COc1nc(Nc2ccc3ccc4cccc5ccc2c3c45)nc(OC)n1
photoluminescence quantum yield (in CC#N): 0.24
photoluminescence quantum yield (in CCCCOCCCC): 0.57
photoluminescence quantum yield (in CO): 0.02

CC(C)(C)c1ccc2c(c1)c1cc(C(C)(C)C)ccc1n2-c1cc(C(=O)c2ccncc2)cc(-n2c3ccc(C(C)(C)C)cc3c3cc(C(C)(C)C)ccc32)c1
photoluminescence quantum yield (in Cc1ccccc1): 0.075
photoluminescence quantum yield (in c1cc(-c2cccc(-n3c4ccccc4c4ccccc43)c2)cc(-n2c3ccccc3c3ccccc32)c1): 0.97

CCCCC(CC)CN1C(=O)c2cc(Oc3ccc(OC)cc3)c3c4c(Cl)cc5c6c(cc(Cl)c(c7c(Oc8ccc(OC)cc8)cc(c2c37)C1=O)c64)C(=O)N(c1c(C(C)C)cccc1C(C)C)C5=O (stereo not given)
photoluminescence quantum yield (in Cc1ccccc1): 0.13

Cc1nc2c(ccc3c2sc(/C=C/c2ccc(N(CCO)CCO)cc2)[n+]3C)s1
photoluminescence quantum yield (in CO): 0.023
photoluminescence quantum yield (in ClC(Cl)Cl): 0.02

[C-]#[N+]c1ccc(-c2ccc(NC)cc2)cc1
photoluminescence quantum yield (in C1CCCCC1): 0.74
photoluminescence quantum yield (in C1CCOC1): 0.74
photoluminescence quantum yield (in C1COCCO1): 0.77
photoluminescence quantum yield (in CC#N): 0.88
photoluminescence quantum yield (in CC(C)=O): 0.55
photoluminescence quantum yield (in CCCCCC): 0.49
photoluminescence quantum yield (in CCOC(C)=O): 0.63
photoluminescence quantum yield (in CN(C)C=O): 0.49
photoluminescence quantum yield (in CO): 0.65
photoluminescence quantum yield (in CS(C)=O): 0.72
photoluminescence quantum yield (in Cc1ccccc1): 0.59
photoluminescence quantum yield (in ClC(Cl)Cl): 0.55
photoluminescence quantum yield (in ClCCl): 0.85
photoluminescence quantum yield (in O): 0.0087
photoluminescence quantum yield (in c1ccncc1): 0.03

COc1ccc(/C=C/c2cc(/C=C/c3ccc(OC)cc3)nc(/C=C/c3ccc(N(c4ccccc4)c4ccccc4)cc3)n2)cc1
photoluminescence quantum yield (in ClCCl): 0.1

COC(=O)c1nc2c(N)nc(N(C)C)nc2n1Cc1ccccc1
photoluminescence quantum yield (in C1COCCO1): 0.95
photoluminescence quantum yield (in CC#N): 0.75
photoluminescence quantum yield (in CO): 0.76
photoluminescence quantum yield (in ClCCl): 0.95

CCN(CC)c1ccc(-c2nc(Oc3ccc(-c4nc5ccccc5[nH]4)cc3)nc(Oc3ccc(-c4nc5ccccc5[nH]4)cc3)n2)cc1
photoluminescence quantum yield (in CN(C)C=O): 0.197

c1ccc2[nH]c(-c3ccc(-c4ccc(-c5ccc(-c6nc7ccccc7[nH]6)cc5)cc4)cc3)nc2c1
photoluminescence quantum yield (in CN(C)C=O): 0.88

CCN(CC)c1ccc2cc(/C=C/c3ccccc3)c(=O)oc2c1
photoluminescence quantum yield (in CC#N): 0.85
